Measured values as given in PubChem BioAssay (NCI).
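These data come from cells grown in 96-well plates and exposed to compound for 48 hours at five concentrations. Here, GI50 denotes the concentration required for 50% inhibition of growth. Definition used: TGI = concentration required for complete inhibition of growth.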

Columns and labels:
Assay in all cases: NCI tumour cell line growth inhibition, 48 h
DU-145 prostate = tested on: DU-145 prostate
HCT-15 colon = tested on: HCT-15 colon
NCI-H23 lung = tested on: NCI-H23 lung
OVCAR-8 ovarian = tested on: OVCAR-8 ovarian
RXF 393 renal = tested on: RXF 393 renal
SF-268 CNS = tested on: SF-268 CNS
SF-295 CNS = tested on: SF-295 CNS
SK-MEL-5 melanoma = tested on: SK-MEL-5 melanoma
OVCAR-5 ovarian = tested on: OVCAR-5 ovarian
SR leukemia = tested on: SR leukemia

Row | Compound | GI50 (DU-145 prostate) [µM] | TGI (DU-145 prostate) [µM] | GI50 (HCT-15 colon) [µM] | TGI (HCT-15 colon) [µM] | GI50 (NCI-H23 lung) [µM] | TGI (NCI-H23 lung) [µM] | GI50 (OVCAR-8 ovarian) [µM] | GI50 (RXF 393 renal) [µM] | TGI (RXF 393 renal) [µM] | GI50 (SF-268 CNS) [µM] | TGI (SF-268 CNS) [µM] | TGI (SF-295 CNS) [µM] | GI50 (SK-MEL-5 melanoma) [µM] | TGI (SK-MEL-5 melanoma) [µM] | TGI (OVCAR-5 ovarian) [µM] | TGI (OVCAR-8 ovarian) [µM] | TGI (SR leukemia) [µM] | GI50 (OVCAR-5 ovarian) [µM] | GI50 (SF-295 CNS) [µM] | GI50 (SR leukemia) [µM]
1 | COc1cc(/C=C/C(=O)N2CCN(C(=O)c3cc(OC)c(OC)c(OC)c3)CC2)ccc1OCCCOc1cc2c(cc1OC)C(=O)N1CCC[C@H]1C=N2 | 0.351 | 11.5 | 3.18 | 27.7 | 0.296 | 0.974 | 0.345 | 0.334 | 3.68 | 0.284 | 4.03 | 0.875 | 0.193 | 0.415 | – | – | – | – | – | –
2 | Nc1cc(=O)n(-c2ccccc2)c(=S)n1-c1ccccc1 | – | – | – | > 100 | – | – | – | – | > 100 | – | > 100 | > 100 | – | > 100 | > 100 | > 100 | – | – | – | –
3 | c1ccc2c(c1)N=C(c1cccc3ccccc13)CC(c1ccc3c(c1)OCO3)S2 (centres undefined) | – | – | – | – | – | > 100 | – | – | > 100 | – | > 100 | > 100 | – | > 100 | > 100 | > 100 | > 100 | – | – | –
4 | Cc1cc(C)nc(NS(=O)(=O)c2ccc(Nc3c4ccc(Cl)cc4nc4c(C(=O)NCCN(C)C)cccc34)cc2)n1 | – | – | – | > 100 | – | > 100 | – | – | > 100 | – | > 100 | > 100 | – | > 100 | > 100 | > 100 | > 100 | – | – | –
5 | COC(=O)C(Cc1nc2ccccc2nc1C)/C(=N\NC(N)=O)C(=O)Nc1cccc([N+](=O)[O-])c1 (centres undefined) | – | – | – | > 100 | – | > 100 | – | – | > 100 | – | > 100 | > 100 | – | > 100 | > 100 | > 100 | > 100 | – | – | –
6 | CCNC(=O)O/N=C1\CCC2[C@@H]3CC=C4C[C@@H](OC5CCCCO5)CC[C@]4(C)C3CC[C@]12C (some centres undefined) | – | – | – | – | – | 11.1 | – | – | 5.64 | – | – | 7.11 | – | > 100 | 13 | 18.2 | – | – | – | –
7 | COc1ccccc1NC(=O)c1nc2ccc([N+](=O)[O-])cc2nc1C | – | – | – | > 100 | – | > 100 | – | – | – | – | > 100 | – | – | > 100 | > 100 | > 100 | – | – | – | –
8 | Cc1ccccc1-n1c2nc(=O)n(C)c(=O)c-2nc2ccccc21 | – | – | – | 24.3 | – | 24.6 | – | – | 39.2 | – | 32.1 | 27.5 | – | 23.1 | 34.9 | 33.6 | – | – | – | –
9 | O=C(/C(=C\c1ccc(Cl)cc1)c1ccccc1)c1ccccc1 | – | – | – | > 100 | – | > 100 | – | – | – | – | > 100 | > 100 | – | – | > 100 | > 100 | > 100 | – | – | –
10 | COc1cc2c(cc1OC)C1Cc3cc(OC)c(OC)cc3C(C2)N1C | – | > 75 | – | > 100 | – | > 100 | – | – | > 75 | – | > 100 | > 100 | – | > 100 | > 100 | > 100 | – | – | – | –
11 | CN1CCN(C)C12C=CC=CC21CC1 | – | – | – | > 100 | – | > 100 | – | – | > 100 | – | > 100 | > 100 | – | > 100 | > 100 | > 100 | > 100 | – | – | –
12 | O=C(COC(=O)c1cccc2c(=O)c3ccccc3[nH]c12)Nc1ccc(C(=O)O)cc1 | – | – | – | – | – | > 100 | – | – | > 100 | – | > 100 | > 100 | – | > 100 | – | > 100 | > 100 | – | – | –
13 | CCOc1cccc(-c2nc(N)nc(Nc3ccccc3SSc3ccccc3Nc3nc(N)nc(-c4cccc(OCC)c4)n3)n2)c1 | 7.5 | > 100 | 2.18 | > 100 | 3.79 | > 100 | 4.43 | 2.86 | 8.75 | 3.84 | > 100 | > 100 | 6.8 | > 100 | 44.1 | > 100 | – | 3.42 | 3.92 | –
14 | Ic1cc2c(cc1C1SCCCS1)OCO2 | – | – | – | > 100 | – | > 100 | – | – | > 100 | – | > 100 | > 100 | – | > 100 | > 100 | > 100 | > 100 | – | – | –
15 | CC1(C)[C@@H](OC(=O)CCC(=O)O)CC[C@]2(C)[C@H]3C(=O)C=C4[C@@H]5C[C@@](C)(C(=O)O)CC[C@]5(C)CC[C@@]4(C)[C@]3(C)CC[C@@H]12 | 58.3 | 142 | 51.1 | 78.7 | 60.1 | 115 | 59.1 | 50.5 | 66 | 55.7 | 143 | 65 | 56 | 86.8 | 125 | 154 | – | 83.2 | 48.7 | –
16 | NCCNCc1c2ccccc2c(CNCCN)c2ccccc12 | – | – | – | > 100 | – | 35.2 | – | – | 38.6 | – | 27.4 | 82.8 | – | 90.3 | 97.5 | 60.3 | > 100 | – | – | –
17 | CC(=O)NC1C(OCc2ccccc2)OC(COC(=O)CCCCCCCCCCNc2ccc([N+](=O)[O-])c3[nH]c4ccccc4c(=O)c23)C(O)C1OC(C)C(=O)NC(C)C(=O)NC(CCC(N)=O)C(=O)OCc1ccccc1 (centres undefined) | – | – | – | > 100 | – | > 100 | – | – | – | – | > 100 | > 100 | – | > 100 | > 100 | > 100 | > 100 | – | – | –
18 | CC1=CC(N2C(=O)C(C)=CC2O)NC1=O (centres undefined) | – | – | – | – | – | > 100 | – | – | > 100 | – | > 100 | > 100 | – | – | > 100 | > 100 | > 100 | – | – | –
19 | COc1cc([N+](=O)[O-])c(OC)cc1-c1nc2sc(Cl)cn2c1/C=N/NC1=NCCN1 | 0.306 | 1.14 | 1.64 | 2.99 | 0.937 | 2.42 | – | – | – | – | – | 52.8 | 0.83 | 2.19 | 2.3 | – | 0.45 | 0.878 | 2.74 | 0.228
20 | COc1ccc2nc3cc(Cl)ccc3c(Sc3ccc([N+](=O)[O-])cc3)c2c1 | – | – | > 100 | > 100 | > 100 | > 100 | > 100 | > 100 | > 100 | > 100 | > 100 | > 100 | > 100 | > 100 | > 100 | > 100 | > 10 | > 100 | > 100 | –
